Source: patent publication US20240287081A1, “PERFLUOROALKANE SUBSTITUTED PYRAZOLO[3,4-D]PYRIMIDIN AND PYRROLO[2,3-D]PYRIMIDIN COMPOUNDS AND USES THEREOF” (ICAHN SCHOOL OF MEDICINE AT MOUNT SINAI, priority 2021, published 2024)

Columns and labels:
[1] = cited from earlier work
[2] = Caco-2 permeability assay; assay type: in vitro ADME; conditions: human, 1 hour at 37° C., HBSS pH 7.4 both sides, read-out: influx/efflux ratio in Caco-2
Method: (§1) FIGS. 9A-9C show the physicochemical comparison of R^F and R^H Analogs. FIG. 9A is a graph of the MDCK and Caco-2 permeability assays for the indicated compounds. Compounds were assayed at 5 μM and transport (Papp, B-A and Papp, A-B, ×10^−6 cm/s) values were measured to determine influx over efflux ratios. […] There are differences in magnitude for bond and molecular dipoles, and R^F- and R^H-substituents have opposite charge profiles.
(§2) Caco-2 and MDCK permeability assays to assess transport in both directions, apical to basolateral (A-B) and basolateral to apical (B-A), across a cell monolayer were conducted at Quintara Discovery. The compounds were tested at a final concentration of 5 microM, with HBSS, pH 7.4 on apical side and HBSS, pH 7.4 on basolateral side. Transport was allowed to proceed for 1 hour at 37° C., with compound detection performed by LC-MS/MS. Assays were conducted twice. Papp, B-A and Papp, A-B, ×10^−6 cm/s values were determined at Quintara.

P-gp = experiment: MDCK permeability assay; assay type: in vitro ADME; conditions: dog, 1 hour at 37° C., HBSS pH 7.4 both sides, read-out: influx/efflux ratio in MDCK
Method: as §1, §2

human MTC cell line TT = conditions: previous work; cited from earlier work
ptc>dRet^M955T flies = experiment: Fly rescue assay (Drosophila MTC model ptc>dRet^M955T); assay type: in vivo; conditions: compound in fly food, 13 d at 25° C., baseline viability 0%
Method: Kinase-mutated fly stocks were obtained from Bloomington Drosophila Stock Center (BDSC; Bloomington, IN). The active mutant form of Drosophila Ret (dRet^955T) carries an M955T mutation corresponding to the M918T mutation commonly reported for multiple endocrine neoplasia (MEN) type 2B patients12,14,16,34. The ptc-gal4, UAS-GFP;UAS-dRet^M955T/SM5tub-gal80-TM6B transgenic flies were prepared according to standard protocols and crossed with non-transgenic w-flies (BDSC) to generate ptc-gal4, UAS-GFP; UAS-dRet^M955T(ptc>dRet^M955T) flies for chemical screening.
All drugs were synthesized in-house. All compounds were dissolved in DMSO (Sigma-Aldrich; St. Louis, MO) and mixed with semi-defined fly medium (BDSC) to make drug food (0.1% final DMSO concentration). For drug screening, ptc>dRet^M955T embryos were raised until adulthood on drug food for 13 d at 25° C. The number of empty pupal cases (i.e., adults) ? that of total pupal cases (P) to determine % viability. Fly randomization was used throughout the assays.
In this model, compounds are assessed based on their ability to suppress oncogenic Ret^M955T-induced tumors, which can be quantified as ‘rescue’ from lethality. […] The baseline viability of ptc>Ret^1955T flies was calibrated to zero, which creates a high bar for rescue but also reduces false-positive hits. Hundreds of flies are tested per condition (typical n values are […] administered through fly food.

[3] = molecular target: T1, wild-type RET kinase domain (Homo sapiens, UniProt P07949); experiment: Wild-type RET Kd, bead based competition assay (KINOMEscan, DiscoverX); assay type: binding; conditions: recombinant human wild-type RET kinase domain, average of two replicates; read-out: Kd towards wild-type RET
T1 construct: determined against recombinant-human, wild-type RET kinase domain; phage display fusion (kinase expressed on phage); purchased DiscoverX (Fremont, CA); host or cells: phage
T1 sequence (P07949 724-1016 limits assumed): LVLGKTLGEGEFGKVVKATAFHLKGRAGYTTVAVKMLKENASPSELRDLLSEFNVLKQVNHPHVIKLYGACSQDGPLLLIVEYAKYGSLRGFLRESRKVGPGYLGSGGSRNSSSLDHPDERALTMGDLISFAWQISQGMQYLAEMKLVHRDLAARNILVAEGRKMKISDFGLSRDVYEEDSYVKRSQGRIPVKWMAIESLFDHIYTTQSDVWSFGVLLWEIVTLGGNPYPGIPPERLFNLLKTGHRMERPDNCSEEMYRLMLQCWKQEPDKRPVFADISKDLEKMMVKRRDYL
Method: Wild-type RET Kd values were determined by DiscoverX (Fremont, CA) using a bead based competition assay (KINOMEscan). In brief, kinases are expressed on phage and immobilized on beads via active site-directed ligands. Test compounds are premixed with kinases and assayed for the ability to compete for immobilized ligands. Binding constants are calculated with a standard dose-response curve and the Hill equation, with Hill slope set to −1. […] Kd values are the average of two experimental replicates.
To assess if the differences in activity between R^F- and R^H-analogs were related to alterations in target engagement, representative analogs for binding on wild-type RET were compared. For this KD values of compounds 40 (para-C2F5) and 50 (para-C2H5) were determined against recombinant-human, wild-type RET kinase domain.

[4] = system: panel of 468 purified human kinases; experiment: In vitro kinase percent inhibition, panel of 468 kinases (DiscoverX); assay type: binding; conditions: 1 μM; for binding to wild-type RET and RET^M918T, in words: kinase panel
Method: Compounds were assayed against a panel of 468 purified human kinases (DiscoverX) to measure percentage inhibition values and derive kinome profiles (FIGS. 3B-3C). All compounds were screened at 1 μM, using two experimental replicates to determine percent inhibition values. Detailed procedures for kinase reactions and assay formats are described at http://www.discoverx.com. Raw data sets for individual compounds were filtered based on the variance of experimental replicates (cutoff=average variance+standard deviation).

Compound	protein-bound in blood plasma [1] [%]	efflux ratio at 1 h, 5 µM [2]	efflux ratio at 1 h, 5 µM (P-gp)	performance in mouse xenograft, in words (human MTC cell line TT)	rescue (percent viability of adult flies, adults/pupae×100) (ptc>dRet^M955T flies) [%]	Kd [3] [nM]	binding to wild-type RET and RET^M918T, in words [4]	binding to wild-type RET and RET^M918T, in words ([4]; listed as 8-82-1)	binding profile / selectivity across the kinome, in words ([4]; panel of 468 kinases)	number of kinases bound with >80% efficacy ([4]; panel of 468 kinases)
CNC(=O)c1cc(Oc2ccc(NC(=O)Nc3ccc(Cl)c(C(F)(F)F)c3)cc2)ccn1 [Sorafenib, sorafenib]	> 99	> 2	< 2							
CNC(=O)c1cc(Oc2ccc(NC(=O)Nc3cc(C(F)(C(F)(F)F)C(F)(F)F)ccc3F)cc2)ccn1 [APS-6-45]		> 2	< 2	performed well	84					
CNC(=O)c1cc(Oc2ccc(NC(=O)Nc3ccc(C(F)(C(F)(F)F)C(F)(F)C(F)(F)F)cc3)c(F)c2)ccn1 (stereo not shown) [APS-8-82-1]					85	110	selective for mutant RET^M918T	selectivity for the M918T mutant over wild-type	highly selective across the kinome	7
